Data reported in patent publication US12285393B2, “Roles of modulators of intersectin-Cdc42 signaling in Alzheimer's disease” (priority 2017, dated 2025).

Legend:
mice = test: Long-term survival after one injection; format: in vivo; conditions: mouse, in vivo
Experimental: Long-term Survival. Groups of 10 mice were treated with one injection of ZCL278 (up to 0.8 mg/g), ZCL279 (up to 0.6 mg/g), or ZCL367 (up to 1.6 mg/g) to examine potential lethal dosage (the maximal dosage tested when no mice died). […] Durations longer than 3 months have not been tested. As a reference, working dosage for the behavioral assessment described below used 20 ug/g for injection, […] than the highest dosage of 0.8 mg/g tested in the long-term survival experiment.

C57BL/6 mice = test: Toxicity experiment, I.P. injection; format: in vivo; conditions: 5 minutes to 24 hours
Experimental: (§1) ZCL 278 Toxicity Experiment: Individual C57BL/6 mice of 4-6 months of age from Jackson Laboratory (Bar Harbor, Maine, United States of America) were submitted to ZCL278 treatment for 5 minutes, 30 minutes, 2 hours and 24 hours. The dosage of ZCL278 for each mouse was 0.8 mg/g body weight delivered via intraperitoneal (I.P.) injection of a 15 mg/ml solution of ZCL278 was dissolved in the sesame oil (10% DMSO).
as §1, with “279” for “278”, “ZCL279” for “ZCL278”, “0.6” for “0.8”
ZCL367 Toxicity Experiment: Individual C57BL/6 mice of 4-6 months of age from Jackson Laboratory (Bar Harbor, Maine, United States of America) were submitted to ZCL367 treatment for 1 hour or 2 weeks. The dosage of ZCL367 for each time period was 0.4 mg/g body weight or 0.8 mg/g body weight, delivered via I.P. injection. […] Mice were sacrificed after end of 1 hour or 2 weeks.

WT and 3×Tg-AD mice = test: Eyeblink classical conditioning test; format: in vivo
Source text: Six-month-old C57/BL6 (WT) and 3×Tg-AD mice with an average weight of 24 g from Jackson Laboratory (Bar Harbor, Maine, United States of America) were used. The 3×Tg-AD mice in hybrid 129/C57BL/6 background contain two mutant human transgenes, hAPP harboring Swedish mutation (hAPPswe) and mutant htau (htau301L) under a neuron-specific promoter, and also contain the knock-in mutant presenilin 1 (PS1M146V). See Oddo et al. (2003) Neuron 39:409-421). 3×Tg-AD mice were received from Jackson Laboratory as Psen1 B6:129-Psen1<tmMpm>Tg(APPSwetauP301L)1Lfa/J and the wild type control as SF2: (B6129SF1/J+p+Tyr-c+Mgf-SIJ)F2. All mice were subjected to two weeks of training for familiarizing behavioral test procedures. Subsequently, mice were assayed to establish a baseline of behavior tests before ZCL compound treatment. Then, mice were separated into three treatment groups (Control, ZCL278 and ZCL279). Both ZCL278 and ZCL279 were dissolved in sesame oil with 5% DMSO and each treatment was administrated via an intraperitoneal injection. All treatment groups of mice were treated once a week. Control group was treated with 130 μl 5% DMSO in sesame oil. ZCL278 and ZCL279 groups were treated with 20 μg/g ZCL 278 or ZCL 279 in sesame oil (5% DMSO). On the day following drug treatment, all mice were subjected to a burrowing test, nesting test and contact avoidance evaluations. On the 4th week of experiment, selected female mice from each group were submitted to Morris water maze test and eye blink test.
Eye blinking test: Eyeblink classical conditioning (ECC) behavior testing was performed based on a method described previously. See Rufer et al., PLoS One, 2012, 7(10):e47499; and Thomas & Tran, Hippocampus, 2012, 22:619-630. Briefly, the day after ZCL compound treatment, two stainless steel recording electrodes (3T, Medwire, Mount Vernon, New York, United States of America) were implanted in the left orbicularis oculi muscle in all mice, and a bipolar stimulating electrode adjacent to the left eye. […]

Cdc42 = Cdc42 (Homo sapiens, UniProt P60953); test: mant-GTP binding to Cdc42 with or without GEF/DH domain; format: biochemical; design: purchased Cytoskeleton Inc; conditions: 5-500 μM
Experimental: Cdc42 (1 μM) was incubated with mant-GTP (1.5 μM) and varying concentrations of ZCL278, ZCL279, or ZCL367 (5-500 μM). Fluorescent readings were taken every minute for 10 m to acquire the baseline. The GEF/DH domain (0.08-0.2 μM) was added followed by readings taken every minute for another 30 m. The linear phase was calculated from within the time period of 12-22 m. Cdc42 (1 μM) was incubated with mant-GTP (1.5 μM) and varying concentrations of ZCL278, ZCL279, or ZCL367 (5-500 μM). Fluorescent readings were taken every minute for 30 m to monitor the binding of mant-GTP in the absence of GEF/DH domain.

Sequence of Cdc42 (P60953 whole entry, the tested form may be a part): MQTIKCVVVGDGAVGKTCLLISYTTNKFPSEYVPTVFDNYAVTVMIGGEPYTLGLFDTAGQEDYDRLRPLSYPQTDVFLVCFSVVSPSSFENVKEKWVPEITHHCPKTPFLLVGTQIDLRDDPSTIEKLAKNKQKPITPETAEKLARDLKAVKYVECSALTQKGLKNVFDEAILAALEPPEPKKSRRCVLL

| Structure (SMILES) | Lethal Dosage (mice) | Longest Dosing Duration (mice) | gross anatomic toxicity (plasma, liver, kidney and brain tissues) (C57BL/6 mice; 0.6 mg/g body weight I.P.) | CR percentage (WT and 3×Tg-AD mice; AD mice, after 6 training sessions (control AD mice about 20%)) | CR percentage (WT and 3×Tg-AD mice; WT mice) | effect on Cdc42 (mant-GTP binding) (Cdc42; in the absence of GEF domain) | effect on Cdc42 (mant-GTP binding) (Cdc42; in the presence of GEF domain) | gross anatomic toxicity (plasma, liver, kidney and brain tissues) (C57BL/6 mice; 0.8 mg/g body weight I.P.) |
| --- | --- | --- | --- | --- | --- | --- | --- | --- |
| O=S(=O)(Nc1ccccc1O)c1ccc2oc3ccc(S(=O)(=O)Nc4ccccc4O)cc3c2c1 [ZCL279, N^2,N^8-bis(2-hydroxyphenyl)dibenzo[b,d]furan-2,8-disulfonamide] | 0.6 mg/g | 3 months | no gross anatomic toxicity | about 35% | did not significantly change | has no effect | activates Cdc42 | – |
| Cc1cc(C)nc(NS(=O)(=O)c2ccc(NC(=S)NC(=O)COc3ccc(Br)cc3Cl)cc2)n1 [ZCL278, 4-(3-(2-(4-bromo-2-chloro-phenoxy)-acetyl)-thioureido)-N-(4,6-dimethylpyrimidin-2-yl)-benzenesulfonamide] | 0.8 mg/g | 3 months | – | – | did not significantly change | activates Cdc42 | acts as an inhibitor | no gross anatomic toxicity |
